Measured values published in article PMC9313812, “The Pseudo‐Natural Product Rhonin Targets RHOGDI” (Angewandte Chemie (International Ed. in English), 2022).

Molecular target: T1, RHOGDI1-RAC1 interaction (Homo sapiens, UniProt P52565)
T1 construct: GST; made in house; host or cells: RHOGDI1: E. coli; GerGer-RAC1: insect cells (TNAO38)
T1 sequence (P52565 1-204): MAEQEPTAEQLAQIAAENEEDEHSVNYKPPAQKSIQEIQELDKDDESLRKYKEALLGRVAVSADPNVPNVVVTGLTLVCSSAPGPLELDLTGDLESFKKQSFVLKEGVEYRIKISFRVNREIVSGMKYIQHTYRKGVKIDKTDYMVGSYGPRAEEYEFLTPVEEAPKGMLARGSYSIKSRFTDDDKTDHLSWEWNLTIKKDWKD
Test: Surface plasmon resonance: RHOGDI1-mediated displacement of GerGer-RAC1-GDP from immobilized liposomes
Assay type: biochemical
Conditions: for Effect on kinetics of geranylgeranylated RAC1 extraction by RHOGDI1 (in words): SPR
Experimental: RHOGDI1 displaced liposome -bound RAC1 from the surface of L1 chip with a koff of 0.016 […]
bound RAC1. Calculated rate constants by mono-exponential fitting of RU decays were 0.02 and 0.032 s-1 for RHOGDI1-mediated RAC1 displacement from the liposomes in the presence of 7a and 7d, respectively. (d) Competition-based fluorescence polarization experiments were performed by titration of 7a against 10 nM fluorescein-labelled atorvastatin and GST-PDEδ.
(e) Fluorescence polarization experiment using 10 nM probe 10 and titration of PDEδ.
(1 picture or pasted object on this page, not shown here)
Surface plasmon resonance (SPR)
Biacore® X100 instrument (Biacore, now GE Healthcare) was used to analyze the effect of 7a on the GerGer-RAC1-GDP and RHOGDI1 interaction. Liposomes suspended in SPR buffer (20 mM HEPES, pH 7.4, 50 mM NaCl, 5 mM MgCl2, 3 mM DTT) were immobilized by injecting 0.5 mM liposomes with flowrate of 5 µL/min on the surface of a Pioneer® L1 sensor chip (GE Healthcare) for the period of 900 s, as indicated by a constant signal. Unbound liposomes were removed by passing the buffer and 10 mM NaOH with flowrate of 5 µL/min for 30 s over the sensor chip. Buffer containing 15 µM GerGer-RAC1-GDP was passed with flowrate of 5 µL/min over the immobilized liposomes to facilitate the loading of GerGer-RAC1-GDP on to the liposomes. The effect of compounds on the association of GerGer-RAC1-GDP with liposomes and the resulting dissociation of GerGer-RAC1 upon passing 25 µM of RHOGDI1 was monitored by the change in the response unit signal.
Protein expression and purification
RHOGDI1 delta15, RHOGDI1 delta25, RHOGDI1-3 were produced in E. coli (XL1-Blue) as a GST recombinant protein as described previously.[9] In summary, protein were expressed in E.coli BL21 upon addition of IPTG overnight. Cell were collected and lysed in a lysis buffer, containing 30 mM Tris-NaOH pH 7.4, 150 mM NaCl, 1 mM DTT, and 5 mM MgCl2. Cells were further lysed using sonication. […]

COC(=O)C1(CCC(=O)c2ccc(F)cc2)N=C(c2ccc(Br)cc2)C2C(=O)N(C)C(=O)C21 (stereo not drawn) [7d]
Rate constant of RHOGDI1-mediated RAC1 displacement from liposomes in presence of compound (25 µM RHOGDI1, mono-exponential fitting of RU decays): 0.032 s⁻¹
Effect on kinetics of geranylgeranylated RAC1 extraction by RHOGDI1 (in words): did not

COC(=O)C1(C(CC(=O)c2ccccc2)c2ccccc2)N=C(c2ccc(Br)cc2)C2C(=O)N(C)C(=O)C21 (stereo not drawn) [7a]
Effect on kinetics of geranylgeranylated RAC1 extraction by RHOGDI1 (in words): slowed down the kinetics
